According to article PMC11011439, “Influence of Molecular Design on the Tumor Targeting and Biodistribution of PSMA-Binding Tracers Labeled with Technetium-99m” (International Journal of Molecular Sciences, 2024):
Marks after values point to notes of the source that are not given here.

Legend:
[1] = Octanol/water distribution coefficient (LogD); assay type: physicochemical; conditions: n-octanol / Milli-Q water
Protocol: The LogD was determined experimentally based on the procedure described earlier. Briefly, the radiolabeled compound of interest was added to a LoBind Eppendorf tube (Eppendorf, Hamburg, Germany) containing Milli-Q water (500 μL) and n-octanol (500 μL), and the mixture was vortexed and centrifuged. Thereafter, three fractions from each phase were collected and the activity was measured using a gamma counter. The LogD was calculated by dividing the average activity measured in octanol by the average activity measured in water.

PSMA [2] = target: T1, PSMA (Homo sapiens, UniProt Q04609); assay: Real-time binding kinetics on living PC3-pip cells (LigandTracer Yellow); conditions: 5 nM tracer, 1:2 interaction model
T1 construct: expressed in transfected cells; host or cells: PC3-pip cells (from Prof. Martin G. Pomper, Johns Hopkins University)
Protocol: The binding kinetics of [^99mTc]Tc-labeled BQ0411, BQ0412, and BQ0413 were measured in real time using LigandTracer Yellow Instruments (Ridgeview Instruments AB, Uppsala, Sweden) on PC3-pip cells, as described earlier. The activity binding was recorded at 5 nM on the radiolabeled tracers for 150 min. After measuring the binding kinetics, the medium containing the labeled tracer was replaced with fresh medium, and the dissociation was monitored over 7 h. […]

[3] = Biodistribution in NMRI mice; assay type: in vivo; conditions: for activity in carcass / activity in intestines with content / uptake in blood / uptake in kidney / uptake in liver / uptake in lung / uptake in salivary glands / uptake in spleen / uptake in stomach: 40 pmol/mouse iv
Protocol: Four NMRI mice were intravenously injected with 40 pmol of the radiotracer (60 kBq, the mass of the injected compound was adjusted with an unlabeled tracer). The mice were euthanized with a lethal intraperitoneal injection of ketamine/xylazine, followed by exsanguination at 3 and 24 h post-injection (pi). The organs of interest were collected, weighed, and measured for their activity content using a gamma counter. The uptake activity in organs was calculated as the percentage of injected activity per gram (%IA/g) for the blood, salivary glands, lungs, liver, spleen, stomach, and kidneys and as %IA for the remaining carcass and the rest of the intestines with content.

[4] = Stability of the [99mTc]Tc-maG3 complex in PBS and under cysteine challenge (radio-HPLC); assay type: physicochemical
Protocol: The iTLC data were cross-validated using radio-HPLC analysis, performed using a Hitachi Chromaster HPLC system with a radioactivity detector and Phenomenex Luna® C18 column (100 Å; 150 × 4.6 mm; 5 µm) at room temperature (20 °C), in the following conditions: solvent A: 0.1% trifluoroacetic acid (TFA) in H2O, solvent B: 0.1% TFA in acetonitrile, flow rate: 1 mL/min. For identity and purity analysis of [^99mTc]Tc-BQ0411 and [^99mTc]Tc-BQ0412, the method with a gradient from 5 to 60% solvent B over 20 min was used.
To evaluate the chemical stability of the [^99mTc]Tc-maG3 complex, fractions of radiolabeled conjugates (10 µL, 0.25 µg) were incubated with a 300× molar excess of cysteine or with PBS at room temperature for 1 h. The test was run in triplicate.

PC3-pip cells = assay: Cellular processing (internalization) during continuous incubation; assay type: cell-based; conditions: 2 nM, 37 °C
Protocol: To evaluate the cellular processing of [^99mTc]Tc-labeled BQ0411 and BQ0412, PC3-pip cells were incubated with the radiolabeled tracer (2 nM), and at predetermined time points (1, 2, 4, and 8 h), cells were treated with 0.5 mL of 4 M urea solution in a 0.2 M glycine buffer, pH 2.5, for 5 min on ice. After that, the acidic supernatant was collected, and this fraction was considered to be the membrane-bound activity. To lyse the cells, 0.5 mL of 1 M sodium hydroxide solution was added and incubated at 37 °C for at least 20 min. The alkaline-containing solution was collected, and the basic fraction was considered to be the internalized activity.

PSMA [5] = target: T1, PSMA; assay: In vitro binding specificity (saturation with non-labeled PSMA-11) on PC3-pip cells; conditions: 2 nM tracer, 250-fold molar excess of PSMA-11, 1 h, 37 °C
Protocol: For the in vitro binding specificity test, approximately 8 × 10^5 of PC3-pip cells per well were seeded in 6-well plates 24 h before the experiment. Cells in three control wells were pre-saturated with a 250-fold excess of non-labeled PSMA-11 15 min before the addition of radiotracers, while the second set was treated with complete media. After 15 min of incubation at room temperature, [^99mTc]Tc-labeled radioligands were added to all wells to reach a concentration of 2 nM. After one hour of incubation at 37 °C, the cells were washed with PBS solution, detached, and collected. Cell-associated activity was measured using a gamma counter and presented as the percentage of added activity.

[6] = system: PSMA-expressing prostate cancer xenografts (PC3-pip); assay: Biodistribution and tumor targeting in PC3-pip tumor-bearing mice; assay type: in vivo, BALB/c nu/nu mice; conditions: 3 h pi
Protocol: PSMA-expressing prostate cancer xenografts were implanted in BALB/c nu/nu mice by subcutaneous injection of PC3-pip cell suspension in PBS (10^7 cells/animal in 100 µL). The average tumor weight was 0.3 ± 0.2 g at the time of the experiment. Four mice per data point were used. Mice were intravenously injected with 5 nmol of the radiotracer (60 kBq, the mass of the injected compound was adjusted with an unlabeled tracer). The mice were euthanized 3 h pi, and the samples were treated as described above.

T1 sequence (Q04609 whole entry): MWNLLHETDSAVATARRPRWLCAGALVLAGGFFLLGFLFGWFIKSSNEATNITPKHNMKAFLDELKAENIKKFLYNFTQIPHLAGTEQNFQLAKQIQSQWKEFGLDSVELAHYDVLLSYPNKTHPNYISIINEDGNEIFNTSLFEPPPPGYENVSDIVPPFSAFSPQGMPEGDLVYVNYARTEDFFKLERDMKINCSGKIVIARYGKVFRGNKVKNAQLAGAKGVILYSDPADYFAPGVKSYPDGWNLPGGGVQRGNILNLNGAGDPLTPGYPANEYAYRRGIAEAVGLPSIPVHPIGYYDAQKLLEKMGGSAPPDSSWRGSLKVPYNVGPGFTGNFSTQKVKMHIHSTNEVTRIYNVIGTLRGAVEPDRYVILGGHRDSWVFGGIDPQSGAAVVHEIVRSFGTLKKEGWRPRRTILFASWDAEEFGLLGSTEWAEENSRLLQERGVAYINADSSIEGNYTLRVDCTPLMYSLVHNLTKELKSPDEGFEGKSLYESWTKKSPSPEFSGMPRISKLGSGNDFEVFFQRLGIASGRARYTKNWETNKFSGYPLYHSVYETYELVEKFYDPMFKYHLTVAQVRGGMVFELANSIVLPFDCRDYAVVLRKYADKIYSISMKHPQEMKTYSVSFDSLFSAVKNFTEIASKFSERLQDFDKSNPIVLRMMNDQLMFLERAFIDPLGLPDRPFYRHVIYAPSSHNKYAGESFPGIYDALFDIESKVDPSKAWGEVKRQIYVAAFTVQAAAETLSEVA

SMILES: CC(=O)N[C@@H](CCCCNC(=O)C[N]1C(=O)C[N]2C(=O)C[N]3C(=O)C[S][99Tc-]132=[O])C(=O)NCCCCCCCC(=O)N[C@@H](Cc1ccc(O)cc1)C(=O)N[C@@H](Cc1ccc2ccccc2c1)C(=O)NCCCC[C@H](NC(=O)N[C@@H](CCC(=O)O)C(=O)O)C(=O)O [[^99mTc]Tc-BQ0412]
- logD (octanol–water distribution coefficient) [1]: −2.3 ± 0.1
- ka1 (PSMA [2]): 31000 M⁻¹ s⁻¹
- ka2 (PSMA [2]): 46000 M⁻¹ s⁻¹
- kd1 (PSMA [2]): 1.4e-05 s⁻¹
- kd2 (PSMA [2]): 1.6e-05 s⁻¹
- activity in carcass ([3]; 3 h pi): 2.9 ± 0.1 *^,c %IA/sample
- activity in intestines with content ([3]; 3 h pi): 70 ± 7 *^,c %IA/sample
- uptake in blood ([3]; 3 h pi): 0.5 ± 0.1 %IA/g
- uptake in kidney ([3]; 3 h pi): 56 ± 9 *^,c %IA/g
- uptake in liver ([3]; 3 h pi): 3 ± 1 *^,c %IA/g
- uptake in lung ([3]; 3 h pi): 0.3 ± 0.1 *^,c %IA/g
- uptake in salivary glands ([3]; 3 h pi): 0.24 ± 0.03 *^,c %IA/g
- uptake in spleen ([3]; 3 h pi): 0.23 ± 0.07 *^,c %IA/g
- uptake in stomach ([3]; 3 h pi): 0.17 ± 0.03 *^,c %IA/g
- activity in carcass ([3]; 24 h pi): 0.12 ± 0.03 ^c %IA/sample
- activity in intestines with content ([3]; 24 h pi): 0.16 ± 0.04 ^c %IA/sample
- uptake in blood ([3]; 24 h pi): 0.016 ± 0.002 ^c %IA/g
- uptake in kidney ([3]; 24 h pi): 1.1 ± 0.3 ^c %IA/g
- uptake in liver ([3]; 24 h pi): 0.016 ± 0.004 ^c %IA/g
- uptake in lung ([3]; 24 h pi): 0.014 ± 0.008 ^c %IA/g
- uptake in salivary glands ([3]; 24 h pi): 0.015 ± 0.006 ^c %IA/g
- uptake in spleen ([3]; 24 h pi): 0.007 ± 0.005 %IA/g
- uptake in stomach ([3]; 24 h pi): 0.07 ± 0.05 ^c %IA/g
- uptake in intestines with content, fold higher than [99mTc]Tc-BQ0411 ([3]; 3 h pi): 1.6 fold
- uptake in kidneys, fold lower than [99mTc]Tc-BQ0411 ([3]; 3 h pi): 2.3 fold
- activity remaining in the body ([3]; 3 h pi, excluding activity in the intestines with content): 20–30 % from injected
- washout of activity from kidneys ([3]; 24 h pi compared to 3 h pi): 98%
- release of activity under cysteine challenge ([4]; 300-fold molar excess of cysteine, room temperature, 1 h): around 60%
- stability during incubation in PBS ([4]; PBS, room temperature, 1 h): stable
- share of activity in radio-HPLC peak, retention time 6.2 min ([4]; cysteine challenge, radiolabeled product, speculated Tc–cysteine complex): 32.5%
- share of activity in radio-HPLC peak, retention time 14.1 min ([4]; cysteine challenge, radiolabeled product, speculated intermediate transchelation product): 25.5%
- internalized activity (of cell-associated activity) (PC3-pip cells; 4 h of continuous incubation): 43 ± 1%
- internalized activity (of cell-associated activity) (PC3-pip cells; after 4 h (8 h of continuous incubation)): 32 ± 1%
- binding to PC3-pip cells after pre-treatment with excess non-labeled PSMA-11 (PSMA [5]): significantly (p ˂ 0.0001) decreased
- activity in carcass ([6]; 5 nmol/mouse iv): 2.6 ± 1.3 %IA/sample
- activity in intestines with content ([6]; 5 nmol/mouse iv): 69 ± 17 ^c %IA/sample
- uptake in blood ([6]; 5 nmol/mouse iv): 0.5 ± 0.1 %IA/g
- uptake in bone ([6]; 5 nmol/mouse iv): 0.15 ± 0.07 %IA/g
- uptake in kidney ([6]; 5 nmol/mouse iv): 16 ± 5 %IA/g
- uptake in liver ([6]; 5 nmol/mouse iv): 0.5 ± 0.1 %IA/g
- uptake in lung ([6]; 5 nmol/mouse iv): 0.5 ± 0.1 %IA/g
- uptake in muscle ([6]; 5 nmol/mouse iv): 0.2 ± 0.1 %IA/g
- uptake in pancreas ([6]; 5 nmol/mouse iv): 0.4 ± 0.3 %IA/g
- uptake in salivary glands ([6]; 5 nmol/mouse iv): 0.2 ± 0.1 ^c %IA/g
- uptake in small intestine ([6]; 5 nmol/mouse iv): 1.2 ± 0.7 ^c %IA/g
- uptake in spleen ([6]; 5 nmol/mouse iv): 0.6 ± 0.3 %IA/g
- uptake in stomach ([6]; 5 nmol/mouse iv): 0.3 ± 0.2 %IA/g
- uptake in tumor ([6]; 5 nmol/mouse iv): 17 ± 5 %IA/g
- tumor-to-blood ratio ([6]; 5 nmol/mouse): 35 ± 4 ^c
- tumor-to-bone ratio ([6]; 5 nmol/mouse): 128 ± 38
- tumor-to-kidney ratio ([6]; 5 nmol/mouse): 1.1 ± 0.1
- tumor-to-liver ratio ([6]; 5 nmol/mouse): 35 ± 5 ^c
- tumor-to-lung ratio ([6]; 5 nmol/mouse): 39 ± 6
- tumor-to-muscle ratio ([6]; 5 nmol/mouse): 143 ± 58 ^c
- tumor-to-pancreas ratio ([6]; 5 nmol/mouse): 82 ± 33
- tumor-to-salivary ratio ([6]; 5 nmol/mouse): 90 ± 16 ^c
- tumor-to-small intestine ratio ([6]; 5 nmol/mouse): 19 ± 9 ^c
- tumor-to-spleen ratio ([6]; 5 nmol/mouse): 26 ± 6
- tumor-to-stomach ratio ([6]; 5 nmol/mouse): 77 ± 29
- activity uptake in the gastrointestinal tract (with content) [6]: over 40 %IA
